{
  "source": "ChEMBL document CHEMBL5500403",
  "about": "“Discovery of a Double-Stapled Short Peptide as a Long-Acting HIV-1 Inactivator with Potential for Oral Bioavailability” (J Med Chem, 2024)",
  "key": {"[1]": {"assay": "MRT in Sprague-Dawley rat at 10 mg/kg,iv administration measured upto 9 days by LC-MS/MS analysis", "format": "ADME, organism-based", "conditions": "in vivo, 216 h, time < 9 day"}, "[2]": {"test_system": "ACH-2 cell line", "assay": "Cytotoxicity against chidamide reactivated human ACH-2 cell line infected with latent HIV-1 assessed as reduction in cell viability at 1.25 to 5 uM", "format": "functional, cell-based", "conditions": "dose 1.25-5 µM"}, "[3]": {"assay": "Stability in human liver microsomes in presence of NADPH by LC-MS/MS analysis", "format": "ADME, Microsome"}, "[4]": {"assay": "Proteolytic stability assessed as Pepsin (unknown origin) mediated compound degradation incubated for 4 hrs by LC-MS/MS analysis", "format": "ADME", "conditions": "human"}, "[5]": {"assay": "Total clearance in Sprague-Dawley rat at 1 mg/kg,iv administration measured upto 9 days by LC-MS/MS analysis", "format": "ADME, organism-based", "conditions": "in vivo, time < 9 day"}, "[6]": {"assay": "Toxicity in Sprague-Dawley rat assessed as inflammatory cell infiltration in liver at 50 mg/kg,iv administration measured after 14 days by hematoxylin and eosin staining based assay", "format": "organism-based", "conditions": "in vivo, 336 h, time 14 day"}, "[7]": {"assay": "Biodistribution in Sprague-Dawley rat lymph node assessed as fold increase in AUC at 1 mg/kg,iv administration measured after 12 days by LC-MS/MS analysis", "format": "ADME, organism-based", "conditions": "in vivo, 288 h, time 12 day"}, "[8]": {"assay": "Half life in Sprague-Dawley rat plasma at 50 mg/kg,po administrated for 15 hrs by LC-MS/MS analysis", "format": "ADME, organism-based"}, "[9]": {"assay": "Cytotoxicity against human MT2 cells", "format": "toxicity, cell-based"}, "[10]": {"assay": "Toxicity in Sprague-Dawley rat assessed as histopathological change in liver at 50 mg/kg,iv administration measured after 14 days by hematoxylin and eosin staining based assay", "format": "organism-based", "conditions": "in vivo, 336 h, time 14 day"}, "[11]": {"assay": "Toxicity in male BALB/c mouse assessed as change in body weight at 100 mg/kg,iv administration measured upto 14 days", "format": "organism-based", "conditions": "in vivo, 336 h, time < 14 day"}, "[12]": {"assay": "Toxicity in BALB/c mouse assessed as histopathological change in liver at 20 mg/kg,iv administration measured after 14 days by hematoxylin and eosin staining based assay", "format": "organism-based", "conditions": "in vivo, 336 h, time 14 day"}, "[13]": {"assay": "Toxicity in Sprague-Dawley rat assessed as change in serum creatinine level at 50 mg/kg,iv administration measured upto 6 days", "format": "organism-based", "conditions": "in vivo, 144 h, time < 6 day"}, "[14]": {"assay": "Biodistribution in Sprague-Dawley rat testis assessed as fold increase in AUC at 1 mg/kg,iv administration measured after 12 days by LC-MS/MS analysis", "format": "ADME, organism-based", "conditions": "in vivo, 288 h, time 12 day"}, "[15]": {"assay": "Toxicity in female BALB/c mouse assessed as change in body weight at 20 mg/kg,iv administration measured upto 14 days", "format": "organism-based", "conditions": "in vivo, 336 h, time < 14 day"}, "[16]": {"assay": "Biodistribution in Sprague-Dawley rat brain assessed as fold increase in AUC at 1 mg/kg,iv administration measured after 12 days by LC-MS/MS analysis", "format": "ADME, organism-based", "conditions": "in vivo, 288 h, time 12 day"}, "[17]": {"assay": "Drug concentration in Sprague-Dawley rat plasma at 50 mg/kg,po administrated for 15 hrs by LC-MS/MS analysis", "format": "ADME, organism-based", "conditions": "in vivo"}, "[18]": {"assay": "Drug concentration in Sprague-Dawley rat plasma assessed as fold increase in drug uptake at 10 mg/kg,iv administrated upto 8 days by LC-MS/MS analysis", "format": "ADME, organism-based", "conditions": "in vivo, 192 h, time < 8 day"}, "[19]": {"assay": "Biodistribution in Sprague-Dawley rat spleen assessed as fold increase in AUC at 1 mg/kg,iv administration measured after 12 days by LC-MS/MS analysis", "format": "ADME, organism-based", "conditions": "in vivo, 288 h, time 12 day"}, "[20]": {"assay": "Toxicity in BALB/c mouse assessed as histopathological change in kidney at 20 mg/kg,iv administration measured after 14 days by hematoxylin and eosin staining based assay", "format": "organism-based", "conditions": "in vivo, 336 h, time 14 day"}, "[21]": {"assay": "Toxicity in BALB/c mouse assessed as change in serum creatinine level at 100 mg/kg,iv administration measured upto 6 days", "format": "organism-based", "conditions": "in vivo, 144 h, time < 6 day"}, "[22]": {"assay": "Toxicity in Sprague-Dawley rat assessed as necrosis in liver at 50 mg/kg,iv administration measured after 14 days by hematoxylin and eosin staining based assay", "format": "organism-based", "conditions": "in vivo, 336 h, time 14 day"}, "[23]": {"test_system": "Human immunodeficiency virus 1", "assay": "Antiviral activity against HIV-1 Bal-R5 infected in human CEMx174 5.25M7 cells assessed as inhibition of viral growth pretreated with virus for 30 mins followed by infection with cells incubated for 72 hrs by ELISA", "format": "functional, organism-based", "conditions": "Human immunodeficiency virus 1, Bal-R5, CEMx174 5.25M7"}, "[24]": {"assay": "Elimination half life in Sprague-Dawley rat at 1 mg/kg,iv administration measured upto 9 days by LC-MS/MS analysis", "format": "ADME, organism-based", "conditions": "in vivo, time < 9 day, read-out: beta t1/2 (converted)"}, "[25]": {"assay": "Total clearance in Sprague-Dawley rat at 10 mg/kg,iv administration measured upto 9 days by LC-MS/MS analysis", "format": "ADME, organism-based", "conditions": "in vivo, 216 h, time < 9 day"}, "[26]": {"assay": "Toxicity in BALB/c mouse assessed as change in serum ALT level at 100 mg/kg,iv administration measured upto 6 days", "format": "organism-based", "conditions": "in vivo, 144 h, time < 6 day"}, "[27]": {"assay": "Stability in rat plasma assessed as parent compound remaining at 1 ug/ml incubated for 1 hr by LC-MS/MS analysis", "format": "ADME, cell-free", "conditions": "at 1 µg/mL, read-out: Stability"}, "[28]": {"assay": "Toxicity in BALB/c mouse assessed as change in serum creatinine level at 20 mg/kg,iv administration measured upto 6 days", "format": "organism-based", "conditions": "in vivo, 144 h, time < 6 day"}, "[29]": {"test_system": "Human immunodeficiency virus 1", "assay": "Antiviral activity against HIV-1 IIIB assessed as reduction in viral growth by measuring p24 antigen level incubated for 2 hrs by ELISA", "format": "functional, organism-based", "conditions": "Human immunodeficiency virus 1, IIIB"}, "[30]": {"assay": "Toxicity in male BALB/c mouse assessed as change in body weight at 20 mg/kg,iv administration measured upto 14 days", "format": "organism-based", "conditions": "in vivo, 336 h, time < 14 day"}, "[31]": {"assay": "Biodistribution in Sprague-Dawley rat intestine assessed as fold increase in AUC at 1 mg/kg,iv administration measured after 12 days by LC-MS/MS analysis", "format": "ADME, organism-based", "conditions": "in vivo, 288 h, time 12 day"}, "[32]": {"test_system": "proteinase K", "assay": "Proteolytic stability assessed as proteinase K (unknown origin) mediated compound degradation by measuring parent compound remaining incubated for 4 hrs by LC-MS/MS analysis", "format": "ADME", "conditions": "human, read-out: Stability"}, "[33]": {"test_system": "SARS-CoV-2", "assay": "Antiviral activity against SARS-CoV-2 infected in human Caco-2 cells assessed as inhibition of viral growth at 2000 nM", "format": "functional, organism-based", "conditions": "Severe acute respiratory syndrome coronavirus 2"}, "[34]": {"assay": "Toxicity in Sprague-Dawley rat assessed as inflammatory cell infiltration in kidney at 50 mg/kg,iv administration measured after 14 days by hematoxylin and eosin staining based assay", "format": "organism-based", "conditions": "in vivo, 336 h, time 14 day"}, "[35]": {"assay": "Plasma protein binding in rat by LC-MS/MS analysis", "format": "ADME, cell-free", "conditions": "read-out: PPB (converted)"}, "[36]": {"assay": "Drug concentration in Sprague-Dawley rat plasma at 50 mg/kg,po administrated for 5 days by LC-MS/MS analysis", "format": "ADME, organism-based", "conditions": "in vivo, 120 h, time 5 day"}, "[37]": {"assay": "Volume of distribution at steady state in Sprague-Dawley rat at 10 mg/kg,iv administration measured upto 9 days by LC-MS/MS analysis", "format": "ADME, organism-based", "conditions": "in vivo, 216 h, time < 9 day"}, "[38]": {"assay": "Toxicity in Sprague-Dawley rat assessed as neural damage by measuring NeuN positive cell at 50 mg/kg,iv administration measured after 14 days", "format": "organism-based", "conditions": "in vivo, 336 h, time 14 day"}, "[39]": {"assay": "Biodistribution in Sprague-Dawley rat brain at 1 mg/kg,iv administration measured upto 12 days by LC-MS/MS analysis", "format": "ADME, organism-based", "conditions": "in vivo, 288 h, time < 12 day"}},
  "note": "pEC50, pIC50: −log10 of the molar value. The source made the active and inactive calls. No cut-off for these calls is given here. Bridge positions count the residues as written; N and C are the ends. Square brackets hold non-standard residues; d marks the D form. Peptide text beside a SMILES is read from it. S5 = C=CCCC[C@](C)(N)C(=O)O",
  "data": [
    {"smiles": "CC(=O)NCC(=O)N[C@@]1(C)CCC/C=C\\CCC[C@@](C)(C(=O)N[C@@H](Cc2ccc(O)cc2)C(=O)N[C@@H](CC(C)C)C(=O)N[C@@]2(C)CCC/C=C\\CCC[C@@](C)(C(=O)N[C@@H](Cc3ccc(O)cc3)C(=O)N[C@@H](Cc3c[nH]c4ccccc34)C(N)=O)NC(=O)[C@H](CC(C)C)NC(=O)[C@H](CC(C)C)NC(=O)[C@H](CC(N)=O)NC2=O)NC(=O)[C@H](CC(C)C)NC(=O)[C@H](C)NC(=O)[C@H](CCC(=O)O)NC1=O", "note": "(Ac-G[S5]EAL[S5]YL[S5]NLL[S5]YW-NH2; staple (Z) 2-6, 9-13)", "values": [
      {"measurement": "MRT", "setting": "[1]", "value": 89.1, "unit": "h"},
      {"measurement": "Activity", "setting": "[2]", "value": "Active"},
      {"measurement": "Stability", "setting": "[3]", "value": "Stable"},
      {"measurement": "Stability", "setting": "[4]", "value": "Stable"},
      {"measurement": "clearance", "setting": "[5]", "value": 0.31, "unit": "mL/min/kg"},
      {"measurement": "Activity", "setting": "[6]", "value": "Non-Toxic"},
      {"measurement": "fold change (FC)", "setting": "[7]", "value": 10},
      {"measurement": "half-life", "setting": "[8]", "value": 2470, "unit": "min"},
      {"measurement": "CC50", "setting": "[9]", "value": 5.07, "unit": "µM"},
      {"measurement": "Activity", "setting": "[10]", "value": "Non-Toxic"},
      {"measurement": "Activity", "setting": "[11]", "value": "Non-Toxic"},
      {"measurement": "Activity", "setting": "[12]", "value": "Non-Toxic"},
      {"measurement": "Activity", "setting": "[13]", "value": "Non-Toxic"},
      {"measurement": "fold change (FC)", "setting": "[14]", "value": 15},
      {"measurement": "Activity", "setting": "[15]", "value": "Non-Toxic"},
      {"measurement": "fold change (FC)", "setting": "[16]", "value": 5},
      {"measurement": "Drug uptake", "setting": "[17]", "value": "Active"},
      {"measurement": "fold change (FC)", "setting": "[18]", "value": 8.3},
      {"measurement": "fold change (FC)", "setting": "[19]", "value": 10},
      {"measurement": "Activity", "setting": "[20]", "value": "Non-Toxic"},
      {"measurement": "Activity", "setting": "[21]", "value": "Non-Toxic"},
      {"measurement": "Activity", "setting": "[22]", "value": "Non-Toxic"},
      {"measurement": "pIC50", "setting": "[23]", "value": 6.74},
      {"measurement": "half-life", "setting": "[24]", "value": "> 2.92", "unit": "days"},
      {"measurement": "CL", "setting": "[25]", "value": 12, "unit": "mL/h/kg"},
      {"measurement": "Activity", "setting": "[26]", "value": "Non-Toxic"},
      {"measurement": "remaining at 1 h, 1 ug/ml", "setting": "[27]", "value": "> 99", "unit": "%"},
      {"measurement": "Activity", "setting": "[28]", "value": "Non-Toxic"},
      {"measurement": "pEC50", "setting": "[29]", "value": 8.09},
      {"measurement": "Activity", "setting": "[30]", "value": "Non-Toxic"},
      {"measurement": "fold change (FC)", "setting": "[31]", "value": 10},
      {"measurement": "remaining at 4 h", "setting": "[32]", "value": 89.6, "unit": "%"},
      {"measurement": "Activity", "setting": "[33]", "value": "inactive"},
      {"measurement": "Activity", "setting": "[34]", "value": "Non-Toxic"},
      {"measurement": "fraction unbound", "setting": "[35]", "value": 0.153},
      {"measurement": "Drug uptake", "setting": "[36]", "value": "Active"},
      {"measurement": "Vdss", "setting": "[37]", "value": 3648.9, "unit": "mL/kg"},
      {"measurement": "Activity", "setting": "[38]", "value": "Non-Toxic"},
      {"measurement": "Drug uptake", "setting": "[39]", "value": "Active"}
    ]}
  ]
}
